The subject of one experiment is WASP. Nature of the experiment: phosphorylation of WASP in 32D progenitors. The following applies: FIG. 7D. In kind it is cell-based, murine. The source says: FIG. 7D. CASIN treatment in 32 progenitors led to dampened phosphorylation of WASP, […].
For another experiment, the system named is Swiss 3T3 fibroblasts. Nature of the experiment: actin cytoskeleton rearrangement in Swiss 3T3 fibroblasts. In kind it is cell-based, murine. The following applies: serum-starved Swiss 3T3 cells, in the presence of CASIN. An excerpt:
To investigate the Cdc42-dependent cytoskeleton rearrangement, Swiss 3T3 fibroblasts were used since it was abundantly elaborated in Swiss 3T3 fibroblats that bradykinin induces actin filopodia formation through activating Cdc42, whereas PDGF activates Rac1 and induces Rac-mediated membrane lamellipoidia, and LPA responsible for RhoA activation, eliciting RhoA-medicated formation of actin stress fibers and focal adhesion assembly (Ridley, A. J. et al. Cell 70, 401-410 (1992); Ridley, A. J. et al. Cell 70, 389-399 (1992); Kozma, R. et al. Mol Cell Biol 15, 1942-1952 (1995)).
[…] cells were seeded in Dulbecco's modified Eagle's medium (DMEM) supplemented with 10% calf serum on glass coverslips at a density of 10^5 cells per well in 8-well chambers. 24 hrs after cell seeding, cells were starved in serum-free DMEM for 24 h in the presence or absence of 5 μM or 10 μM CASIN for the last 2 hrs. cells then were stimulated with 5 ng/ml PDGF, 40 ng/ml LPA, or 100 ng/ml bradykinin, then fixed for immunofluorescence analysis. Immunostaining of F-actin with Rhodamine conjugated-phalloidin (Invitrogen) was carried out as described previously (Shutes, A., et al. J Biol Chem 282, 35666-35678 (2007)).

The test system of experiment [1] is HSCs (IL7Ra^−Lin^−Sca-1^+c-Kit^+) in the BM. Nature of the experiment: six-color FACS of BM HSPC compartments after treatment. It counts as in vivo. The following applies: after CASIN injection, C57Bl/6 mice. The procedure:
Whether CASIN administration can induce mobilization of HSC/Ps to peripheral blood of C57Bl/6 mice, mimicking the phenotype observed in Cdc42 conditional knockout mice, was evaluated. First of all, mobilization of hematopoietic progenitor cells was examined by CFU-C assays functionally (FIG. 3a). […] Secondarily, to further explore the ability of CASIN to mobilize LT-HSC which is crucial for long-term repopulation of the mobilized cells, serial transplantations were carried out, where 20 million PB from CASIN-mobilized C57Bl/6 mice was transplanted into primary recipient of NOD/SCID mice, and subsequent secondary and tertiary transplants were finished as well using prior BMs (FIG. 3c). Donor chimerisms were assessed by using H2K^b congenic marker which is positive for donors of C57Bl/6 strain and negative for recipients of NOD/SCID strain. […] Therefore, the studies show CASIN can efficiently mobilize colony-forming hematopoietic progenitors and LT-HSCs with self-renewal and multi-lineage differentiation capacity. […]
To immunophenotypically profile the multi-compartments of HSPCs in BM, FACS analysis of six-color staining was carried out as previously. […] The sub-compartments of HSC, LT-HSC, ST-HSC, and CLP were quantified accordingly.

In another experiment the test system is donor cell engraftment. Nature of the experiment: Example 9 mobilization as preparative regimen for HSC transplantation. In kind it is in vivo, mice. The method, then: If the microenvironmental niches are vacated after CASIN exposure, donor HSCs might engraft better in hosts treated with a mobilizing agent such as CASIN compared with non-mobilized controls. To test this, bone marrow transplantation is performed on recipient mice which are pre-conditioned with CASIN. […] Additionally, AMD3100, G-CSF, and control medium are used in parallel with CASIN as controls.
Briefly, mice are treated with CASIN, and 4×10^7 donor bone marrow cells from congenic mouse strain are transplanted 48 h later. Donor cell engraftment is assayed at 3 months using the congenic markers by flow cytometry.
Additionally, multiple cycles of mobilization with CASIN may increase the number of available niches. Therefore, this study investigates whether repeated cycles of CASIN mobilization, each followed by donor cell transplantation, could result in increased engraftment. Briefly, mice receive one weekly injection of CASIN on 3 consecutive weeks and 4×10^7 donor marrow cells are transplanted 48 hours after each mobilization. Control animals also received 3 weekly infusions of 4×10^7 donor marrow cells but no CASIN. And the donor engraftment is assayed at 3 months after transplantation as well.

A further experiment deals with Cdc42WT/WT MEF cells. Nature of the experiment: Example 7 adhesion, migration, actin polymerization in MEF cells. The following applies: in vitro. In kind it is cell-based, mouse. The method, then:
To further verify the specificity of CASIN on Cdc42 activity inhibition, adhesion, migration, Actin polymerization is evaluated in both Cdc42−/− and Cdc42WT/WT MEF cells under the following five groups: (1) Cdc42WT/WT cells without treatment; (2) Cdc42−/− cells without treatment; (3) Cdc42WT/WT cells treated with CASIN; (4) Cdc42WT/WT cells treated with control medium; (5) Cdc42−/− cells treated with CASIN, in order to verify that CASIN function through inhibiting Cdc42. similarly, activities of the down stream effectors of Cdc42, Rac, and Rho under the five groups are monitored by western blot as above.

A further experiment relates to 32D myeloid progenitors. Nature of the experiment: FACS analysis of F-actin reorganization in 32D progenitors. In kind it is cell-based, murine. The following applies: dose-dependent pattern. An excerpt: To shed light on potential roles of CASIN in HSPC mobilization, the effects of CASIN on Cdc42-related cellular functions was studied, including adhesion, migration, and F-actin polymerization of progenitor cells in 32D myeloid progenitors. […] SDF-1α stimulation causes a reorganization of F-actin into a cortical ring around the cells. […] Thirdly, to gain further insight into cellular specificity and efficacy of CASIN, and also to rule out possible toxic effects by CASIN, Cdc42-involved BM progenitor cell functions were examined, including proliferation, adhesion, migration, and F-actin polymerization, in Cdc42^+/+ cells in parallel with Cdc42^−/− cells. In line with additional studies in a Cdc42 conditional knockout mouse model as described herein, Cdc42^−/− LDBM cells have increased CFU-forming progenitors compared to those of Cdc42^+/+.

The source of these data is patent publication US9433663B2, “Mobilization of hematopoietic stem cells” (Children's Hospital Medical Center, priority 2008, dated 2016).

As to `OCCNC1CCCc2c1[nH]c1ccc(-c3ccccc3)cc21` (stereo not drawn) [CASIN], in the experiment with WASP, the “phosphorylation of WASP” value is “dampened”. Moreover, in the experiment on Swiss 3T3 fibroblasts, the “LPA-induced actin stress fiber formation” value is “still induced their respective changes in actin reorganization”, the PDGF-induced lamellipodia formation entry is reported as “still induced their respective changes in actin reorganization” and the bradykinin-induced filopodia formation entry is on record as “suppressed completely”. Moreover, in experiment [1], the “number of genotypic HSCs (IL7Ra^−Lin^−Sca-1^+c-Kit^+) in the BM” value is given as “decreased significantly”. Moreover, the “engraftment with 3-cycle administration and subsequent transplantation” value in the experiment on donor cell engraftment (3 weekly cycles) is “further improved compared to one cycle”. Moreover, in the experiment on donor cell engraftment (compared to the non-mobilization control), the “engraftment of donor cells in pre-conditioned recipients” value is listed as “significantly increased engraftment of donor cells”. Further, the “MEF cells' ability of adhesion, migration and actin polymerization” value in the experiment on Cdc42WT/WT MEF cells is recorded as “impairs”. Also, the “F-actin reorganization stimulated by SDF1α” value in the experiment with 32D myeloid progenitors is recorded as “significantly dampened”.
